# Reference: patent publication US11384063B2, “Modulators of estrogen receptor proteolysis and associated methods of use” (Arvinas Operations, Inc., priority 2017, dated 2022)
# Columns and labels:
# ERα [1] = target: T1, ERα (Homo sapiens, UniProt P03372); assay: Estrogen receptor-alpha (ERα) degradation assay in MCF-7 cells using western blot; format: cell-based; set-up: assessed for their activity in degrading ERα in MCF-7 cells via western blot; endogenous in cells; host or cells: MCF7 cells; settings: ER-alpha degradation, MCF7 cells, 3 days of incubation
# T1 sequence (P03372 1-595): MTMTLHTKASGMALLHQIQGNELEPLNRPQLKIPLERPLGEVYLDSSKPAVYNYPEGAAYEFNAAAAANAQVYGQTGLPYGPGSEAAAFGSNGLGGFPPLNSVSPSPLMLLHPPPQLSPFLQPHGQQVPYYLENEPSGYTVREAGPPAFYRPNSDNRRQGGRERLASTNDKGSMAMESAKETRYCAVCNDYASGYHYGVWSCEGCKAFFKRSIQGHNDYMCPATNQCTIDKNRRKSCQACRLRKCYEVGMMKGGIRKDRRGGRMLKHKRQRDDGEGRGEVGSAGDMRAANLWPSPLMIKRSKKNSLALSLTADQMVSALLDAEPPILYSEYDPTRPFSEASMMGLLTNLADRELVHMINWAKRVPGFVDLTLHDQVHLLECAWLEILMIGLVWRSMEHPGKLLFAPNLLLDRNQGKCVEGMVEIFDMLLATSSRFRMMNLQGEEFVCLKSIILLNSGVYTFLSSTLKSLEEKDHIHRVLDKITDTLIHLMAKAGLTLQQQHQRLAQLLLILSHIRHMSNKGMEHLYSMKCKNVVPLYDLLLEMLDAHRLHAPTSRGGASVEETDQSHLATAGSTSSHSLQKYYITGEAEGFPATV
# Experimental: Compounds prepared in this application were also analyzed for the degradation of ERα in MCF7 and T47D cells.
# Estrogen Receptor-Alpha (ERα) Degradation Assay in MCF-7 Cells Using Western Blot Method for Table 4.
# The exemplary novel ERα degraders were assessed for their activity in degrading ERα in MCF-7 cells via western blot. The assay was carried out in the presence of 10% fetal bovine serum (FBS) or high percentage of human or mouse serum.
# MCF7 cells were grown in DMEM/F12 with 10% fetal bovine serum and seeded at 24,000 cells per well in 100 μl into 96-well clear tissue culture plates. The following day, the cells were treated with PROTACs in a […] concentration curve with 100 nM being the top concentration and serial dilutions to make the other concentrations (30 nM, 10 nM, 3 nM, 1 nM, and 0.3 nM). At all concentrations, 0.01% DMSO is the final concentration in the well. The following day, the plates are aspirated, washed with 50 μl of cold PBS. The cells are lysed with 50 μl/well 4° C. Cell Lysis Buffer (Catalog #9803; Cell Signaling Technology, Danvers, Mass.) (20 mM Tris-HCL (pH 7.5), 150 mM NaCl, 1 mM […], 1 mM EGTA, 1% Triton, 2.5 mM sodium pyrophosphate, 1 mM B-glycerophosphate, 1 mM sodium vanadate, 1 ug/ml leupeptin). Lysates were clarified at 16,000×g for 10 minutes, and 2 μg of protein was subjected to SDS-PAGE analysis and followed by immunoblotting according to standard protocols. The antibodies used were ERα (Cell Signaling Technologies Catalog #8644), and Tubulin (Sigma Catalog #T9026; St. Louis, Mo.). Detection reagents were Clarity Western ECL substrate (Bio-Rad Catalog #170-5060; Hercules, Calif.).
# Alternatively, MCF7 cells were grown in DMEM/F12 with 10% fetal bovine serum and seeded at 24,000 cells per well in 500 μl in 24-well clear tissue culture plates. The following day, the cells were treated with PROTACs in a 5-point concentration curve (100 nM, 33 nM, 11 nM, 3.7 nM, and 1.2 nM) in the presence of 0.01% DMSO. After 72 hours, the wells are aspirated and washed with 500 μl of PBS. The cells are lysed with 100 μl/well 4° C. Cell Lysis Buffer (Catalog #9803; Cell Signaling Technology, Danvers, M A) (20 mM Tris-HCL (pH 7.5), 150 mM NaCl, 1 mM Na2EDTA, 1 mM EGTA, 1% Triton, 2.5 mM sodium pyrophosphate, 1 mM B-glycerophosphate, 1 mM sodium vanadate, 1 ug/ml leupeptin). Lysates were clarified at 16,000×g for 10 minutes, and 2 μg of protein was subjected to SDS-PAGE analysis and followed by immunoblotting according to standard protocols. The antibodies used were ER(X (Cell Signaling Technologies Catalog #8644), and Tubulin (Sigma Catalog #T9026; St. Louis, Mo.). Detection reagents were Clarity Western ECL substrate (Bio-Rad Catalog #170-5060; Hercules, Calif.).
# ERα [2] = target: T1, ERα; assay: ERE luciferase reporter gene assay in T47D-KBluc cells (target engagement); format: cell-based; set-up: T47D human breast cancer cells stably transfected with estrogen responsive element/promoter/luciferase reporter gene; host or cells: T47D-KBluc cells; settings: 10% FBS, 24 hours, Table 2 VHL centric PROTACs, read-out: IC50
# In short: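 PROTACs were tested at 12 concentrations from 300 nM down to 2 pM in 3-fold steps for 24 h on T47D-KBluc cells with a stable ERE-driven luciferase. Medium was RPMI with 10% FBS, measured at 10 pM estrogen. IC50 came from luminescence after lysis, in duplicate.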
Structure (SMILES),DC50 (ERα [1]),Dmax (ERα [1]),IC50 (ERα [2])
C[C@H](NC(=O)[C@@H]1C[C@@H](O)CN1C(=O)[C@@H](NC(=O)COCCOCCN(C)CCOc1ccc(Oc2c(-c3ccc(F)cc3)sc3cc(O)ccc23)cc1)C(C)(C)C)c1ccc(Cl)cc1 [Compound 129],1 to 10 nM,> 75%,1.4 nM
"C[C@H](NC(=O)[C@@H]1C[C@@H](O)CN1C(=O)[C@@H](NC(=O)COCCOCCN1CCC(c2ccc(Oc3c(-c4ccc(F)cc4)sc4cc(O)ccc34)cc2)CC1)C(C)(C)C)c1ccc(C#N)cc1 [Compound 147, (2S,4R)—N-[(1S)-1-(4-cyanophenyl)ethyl]-1-[(2S)-2-[2-(2-[2-[4-(4-[[2-(4-fluorophenyl)-6-hydroxy-1-benzothiophen-3-yl]oxy]phenyl)piperidin-1-yl]ethoxy]ethoxy)acetamido]-3,3-dimethylbutanoyl]-4-hydroxypyrrolidine-2-carboxamide]",1 to 10 nM,> 75%,1 nM
"Cc1ncsc1-c1ccc([C@H](C)NC(=O)[C@@H]2C[C@@H](O)CN2C(=O)[C@@H](NC(=O)COCCOCCOCCOc2ccc(Oc3c(-c4ccc(Cl)cc4)sc4cc(O)ccc34)cc2)C(C)(C)C)cc1 [Compound 119, (2S,4R)-1-((S)-2-tert-butyl-14-(4-(2-(4-chlorophenyl)-6-hydroxybenzo[b]thiophen-3-yloxy)phenoxy)-4-oxo-6,9,12-trioxa-3-azatetradecane)-4-hydroxy-N-((S)-1-(4-(4-methylthiazol-5-yl)phenyl)ethyl)pyrrolidine-2-carboxamide]",1 to 10 nM,> 75%,1.1 nM
"Cc1ncsc1-c1ccc(CNC(=O)[C@@H]2C[C@@H](O)CN2C(=O)[C@@H](NC(=O)COCCN2CCN(CCOc3ccc(Oc4c(-c5ccc(F)cc5)sc5cc(O)ccc45)cc3)CC2)C(C)(C)C)cc1 [Compound 118, (2S,4R)-1-((S)-2-(2-(2-(4-(2-(4-((2-(4-fluorophenyl)-6-hydroxybenzo[b]thiophen-3-yl)oxy)phenoxy)ethyl)piperazin-1-yl)ethoxy)acetamido)-3,3-dimethylbutanoyl)-4-hydroxy-N-(4-(4-methylthiazol-5-yl)benzyl)pyrrolidine-2-carboxamide]",< 1 nM,> 75%,0.4 nM
"Cc1ncsc1-c1ccc(CNC(=O)[C@@H]2C[C@@H](O)CN2C(=O)[C@@H](NC(=O)COc2cccc(CCN(C)CCOc3ccc(Oc4c(-c5ccc(F)cc5)sc5cc(O)ccc45)cc3)c2)C(C)(C)C)cc1 [Compound 139, (2S,4R)-1-[(2S)-2-[2-[3-(2-[[2-(4-[[2-(4-fluorophenyl)-6-hydroxy-1-benzothiophen-3-yl]oxy]phenoxy)ethyl](methyl)amino]ethyl)phenoxy]acetamido]-3,3-dimethylbutanoyl]-4-hydroxy-N-[[4-(4-methyl-1,3-thiazol-5-yl)phenyl]methyl]pyrrolidine-2-carboxamide]",< 1 nM,> 75%,0.6 nM
C[C@H](NC(=O)[C@@H]1C[C@@H](O)CN1C(=O)[C@@H](NC(=O)Cc1ccc(-c2ccn(CCOc3ccc(Oc4c(-c5ccc(F)cc5)sc5cc(O)ccc45)cc3)n2)cc1)C(C)(C)C)c1ccc(C#N)cc1 [Compound 149],1 to 10 nM,> 75%,1.4 nM
"Cc1ncsc1-c1ccc([C@H](C)NC(=O)[C@@H]2C[C@@H](O)CN2C(=O)[C@@H](NC(=O)COCCOCCN2CCC(c3ccc(Oc4c(-c5ccc(F)cc5)sc5cc(O)ccc45)cc3)CC2)C(C)(C)C)cc1 [Compound 142, (2S,4R)-1-[(2S)-2-[2-(2-[2-[4-(4-[[2-(4-fluorophenyl)-6-hydroxy-1-benzothiophen-3-yl]oxy]phenyl)piperidin-1-yl]ethoxy]ethoxy)acetamido]-3,3-dimethylbutanoyl]-4-hydroxy-N-[(1S)-1-[4-(4-methyl-1,3-thiazol-5-yl)phenyl]ethyl]pyrrolidine-2-carboxamide]",< 1 nM,> 75%,0.5 nM
"Cc1ncsc1-c1ccc(CNC(=O)[C@@H]2C[C@@H](O)CN2C(=O)[C@@H](NC(=O)COCCN2CCN(CCOc3ccc(Oc4c(-c5ccc(Cl)cc5)sc5cc(O)ccc45)cc3)CC2)C(C)(C)C)cc1 [Compound 151, (2S,4R)-1-[(2S)-2-[2-(2-[4-[2-(4-[[2-(4-chlorophenyl)-6-hydroxy-1-benzothiophen-3-yl]oxy]phenoxy)ethyl]piperazin-1-yl]ethoxy)acetamido]-3,3-dimethylbutanoyl]-4-hydroxy-N-[[4-(4-methyl-1,3-thiazol-5-yl)phenyl]methyl]pyrrolidine-2-carboxamide]",< 1 nM,> 75%,0.4 nM
"Cc1ncsc1-c1ccc(CNC(=O)[C@@H]2C[C@@H](O)CN2C(=O)[C@@H](NC(=O)CN2CCN(CCOCCOc3ccc(Oc4c(-c5ccc(Br)cc5)sc5cc(O)ccc45)cc3)CC2)C(C)(C)C)cc1 [Compound 158, (2S,4R)-1-[(2S)-2-[2-(4-[2-[2-(4-[[2-(4-bromophenyl)-6-hydroxy-1-benzothiophen-3-yl]oxy]phenoxy)ethoxy]ethyl]piperazin-1-yl)acetamido]-3,3-dimethylbutanoyl]-4-hydroxy-N-[[4-(4-methyl-1,3-thiazol-5-yl)phenyl]methyl]pyrrolidine-2-carboxamide]",10 to 100 nM,> 75%,13.7 nM
"Cc1ncsc1-c1ccc(CNC(=O)[C@@H]2C[C@@H](O)CN2C(=O)C(c2cc(OCCN3CCN(CCOc4ccc(Oc5c(-c6ccc(Br)cc6)sc6cc(O)ccc56)cc4)CC3)no2)C(C)C)cc1 (stereo in doubt) [Compound 164, (2S,4R)-1-((S)-2-(3-(2-(4-(2-(4-((2-(4-bromophenyl)-6-hydroxybenzo[b]thiophen-3-yl)oxy)phenoxy)ethyl)piperazin-1-yl)ethoxy)isoxazol-5-yl)-3-methylbutanoyl)-4-hydroxy-N-(4-(4-methylthiazol-5-yl)benzyl)pyrrolidine-2-carboxamide]",1 to 10 nM,50 to 75%,2.7 nM
"Cc1ncsc1-c1ccc([C@H](C)NC(=O)[C@@H]2C[C@@H](O)CN2C(=O)[C@@H](NC(=O)COCCOCCOCCOc2ccc(Oc3c(-c4ccc(F)cc4)sc4cc(O)ccc34)cc2)C(C)(C)C)cc1 [Compound 111, (2S,4R)-1-((S)-2-tert-butyl-14-(4-(2-(4-fluorophenyl)-6-hydroxybenzo[b]thiophen-3-yloxy)phenoxy)-4-oxo-6,9,12-trioxa-3-azatetradecane)-4-hydroxy-N—((S)-1-(4-(4-methylthiazol-5-yl)phenyl)ethyl)pyrrolidine-2-carboxamide]",< 1 nM,> 75%,0.6 nM
